Test results as given in patent US20100179153A1, “Bicyclic S1P Receptor Modulators” (priority 2007, published 2010).

Legend:
Type in all cases: biochemical
human S1P1 receptor = molecular target: T1, human S1P1 receptor (Homo sapiens, UniProt P21453); assay: 35S-GTPγS binding assay (SPA), S1P1; conditions: membrane protein from transfected CHO cells
T1 construct: expressed in transfected cells; host or cells: CHO-K1 (ATCC CCL 61); RH7777 may also be used
Method: (§1) Test 1: ^355-GTPγS Binding Assay
(§2) The S1P receptor modulating properties of an agent of the invention are tested on the human S1P1, S1P2, S1P3, S1P4 and S1P5, respectively, receptor subtypes. The functional receptor activation is assessed by quantifying the compound-induced ^35S-GTPγS binding to membrane protein prepared from transfected heterologous cells stably expressing the appropriate S1P receptor subtype. CHO cells (CHO-K1, Chinese hamster, ATCC no. CCL 61) are used [RH7777 cells (rat Morris hepatoma, ATCC no. CRL 1601) may also be used]. The membrane protein is prepared from wild-type cells and from different cell clones expressing the appropriate S1P receptor subtype. The assay technology used is SPA (scintillation proximity based assay). […] The luminescence of SPA beads triggered by membrane bound ^35S-GTPγS is quantified with a TOPcount plate reader (Packard). To evaluate the S1P receptor modulation, the stimulation (in %) compared to the baseline is calculated as the binding in the presence of the compound divided by the binding in the absence of a ligand, multiplied by 100. […] The selectivity of the compound towards the S1P receptor subtypes is determined by measuring for each of the different S1P receptor subtypes the level of ^35S-GTPγS binding in the presence of the compound using each of the different membrane proteins.

human S1P4 receptor = molecular target: T2, human S1P4 receptor (Homo sapiens, UniProt O95977); assay: 35S-GTPγS binding assay (SPA), S1P4; conditions: membrane protein from transfected CHO cells
T2 construct: expressed in transfected cells; host or cells: CHO-K1 (ATCC CCL 61); RH7777 may also be used
T2 sequence (O95977 1-384): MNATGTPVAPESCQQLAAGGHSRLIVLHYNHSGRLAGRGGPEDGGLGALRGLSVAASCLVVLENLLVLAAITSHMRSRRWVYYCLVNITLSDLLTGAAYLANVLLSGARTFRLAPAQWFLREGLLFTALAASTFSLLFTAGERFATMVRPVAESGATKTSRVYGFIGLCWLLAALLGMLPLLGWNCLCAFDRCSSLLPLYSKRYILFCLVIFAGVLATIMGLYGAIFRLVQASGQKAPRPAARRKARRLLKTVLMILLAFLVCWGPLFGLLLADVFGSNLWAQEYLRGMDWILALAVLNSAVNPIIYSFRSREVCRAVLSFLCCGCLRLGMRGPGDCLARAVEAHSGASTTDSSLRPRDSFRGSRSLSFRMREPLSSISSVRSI
Method: as §1, §2

human S1P5 receptor = molecular target: T3, human S1P5 receptor (Homo sapiens, UniProt Q9H228); assay: 35S-GTPγS binding assay (SPA), S1P5; conditions: membrane protein from transfected CHO cells; for EC50: read-out: EC50 for receptor subtype S1P5
T3 construct: expressed in transfected cells; host or cells: CHO-K1 (ATCC CCL 61); RH7777 may also be used
T3 sequence (Q9H228 whole entry): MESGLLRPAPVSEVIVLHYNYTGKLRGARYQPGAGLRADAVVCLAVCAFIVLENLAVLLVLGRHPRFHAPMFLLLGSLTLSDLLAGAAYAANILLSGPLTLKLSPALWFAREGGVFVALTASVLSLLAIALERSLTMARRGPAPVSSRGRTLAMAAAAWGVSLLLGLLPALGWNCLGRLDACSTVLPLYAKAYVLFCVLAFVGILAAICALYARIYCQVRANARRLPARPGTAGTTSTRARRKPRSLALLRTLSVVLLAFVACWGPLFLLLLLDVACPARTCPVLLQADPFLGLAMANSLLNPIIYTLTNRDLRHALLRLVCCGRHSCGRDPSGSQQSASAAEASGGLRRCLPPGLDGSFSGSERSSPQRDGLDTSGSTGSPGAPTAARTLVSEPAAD
Method: as §1
The S1P receptor modulating properties of an agent of the invention are tested on the human S1P1, S1P2, S1P3, S1P4 and S1P5, respectively, receptor subtypes. The functional receptor activation is assessed by quantifying the compound-induced ^35S-GTPγS binding to membrane protein prepared from transfected heterologous cells stably expressing the appropriate S1P receptor subtype. CHO cells (CHO-K1, Chinese hamster, ATCC no. CCL 61) are used [RH7777 cells (rat Morris hepatoma, ATCC no. CRL 1601) may also be used]. The membrane protein is prepared from wild-type cells and from different cell clones expressing the appropriate S1P receptor subtype. The assay technology used is SPA (scintillation proximity based assay). A DMSO solution of the test compound is serially diluted and added to SPA-bead (Amersham-Pharmacia) immobilised S1P receptor subtype expressing membrane protein (1 to 20 μg/well) in the presence of 50 mM HEPES, 100 mM NaCl, 10 mM MgCl2, 10 μM GDP, 0.1% fat free BSA and 0.2 nM ^35S-GTPγS (1200 Ci/mmol) (pH 7.4). After incubation in 96 well microtiter plates at room temperature for 120 minutes, the unbound ^35S-GTPγS is separated by centrifugation. The luminescence of SPA beads triggered by membrane bound ^35S-GTPγS is quantified with a TOPcount plate reader (Packard). To evaluate the S1P receptor modulation, the stimulation (in %) compared to the baseline is calculated as the binding in the presence of the compound divided by the binding in the absence of a ligand, multiplied by 100. Dose response curves are plotted using a non-linear regression curve fitting program, and the EC50 is defined as the concentration of the compound required to give 50% of its maximum stimulation. Preferably, the EC50 value of an agent of the invention in this test is 10′000 nM or less. The selectivity of the compound towards the S1P receptor subtypes is determined by measuring for each of the different S1P receptor subtypes the level of ^35S-GTPγS binding in the presence of the compound using each of the different membrane proteins.

T1 sequence (P21453 whole entry): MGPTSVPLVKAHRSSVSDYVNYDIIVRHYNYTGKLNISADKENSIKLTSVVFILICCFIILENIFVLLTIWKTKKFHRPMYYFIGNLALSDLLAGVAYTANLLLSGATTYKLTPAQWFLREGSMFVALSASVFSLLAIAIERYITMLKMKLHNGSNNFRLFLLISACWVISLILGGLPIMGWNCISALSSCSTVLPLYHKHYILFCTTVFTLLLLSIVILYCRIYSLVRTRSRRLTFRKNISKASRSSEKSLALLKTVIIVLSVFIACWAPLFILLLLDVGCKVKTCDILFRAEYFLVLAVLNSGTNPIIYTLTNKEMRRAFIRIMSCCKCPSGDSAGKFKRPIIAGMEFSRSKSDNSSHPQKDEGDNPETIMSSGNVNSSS

SMILES	efficacy at S1P1 (human S1P1 receptor) [%]	efficacy at S1P4 (human S1P4 receptor) [%]	EC50 (human S1P4 receptor; read-out: EC50 for receptor subtype S1P4) [nM]	efficacy at S1P5 (human S1P5 receptor) [%]	EC50 (human S1P5 receptor) [nM]
Cc1cc(F)cc(C)c1Nc1cccc2c(C)n[nH]c(=O)c12 [Example 4, 8-(4-Fluoro-2,6-dimethyl-phenylamino)-4-methyl-2H-phthalazin-1-one]	58	74	929	80	117
CCc1cc(F)cc(CC)c1Nc1cccc2c(C)n[nH]c(=O)c12 [Example 8, 8-(2,6-Diethyl-4-fluoro-phenylamino)-4-methyl-2H-phthalazin-1-one]	73	–	–	81	27
